Assay results published in patent publication US10851108B2, “Substituted bicyclic heterocyclic compounds” (BRISTOL-MYERS SQUIBB COMPANY, priority 2016, dated 2020).

target: hROMK (human Kir1.1) (Homo sapiens (Human), UniProt P48048); test: Thallium Flux Assay; type: cell-based; details: CHO T-Rex hROMK stable cell line, 10-point concentration response; read-out: hROMK Th+ Flux IC50
Experimental: Solutions and reagents: Thallium flux assay was performed using FluxOR kit (F10017, Life Technologies). Loading buffer, assay buffer and stimulus buffer were prepared using kit components. HBSS (Hank's balanced salt solution, Cat #14025-092) was purchased separately from Life Technologies.
To prepare 10 ml of loading buffer: 10 μl of FluxOR dye (reconstituted in DMSO) was first added to 100 μl of powerload concentrate and this mix along with 100 μl of Probenicid (100×) was then added to 9.79 ml of HBSS. Assay buffer (10 ml) was prepared by addition of 2 ml of FluxOR chloride free buffer (5×), 100 μl of Probenicid (100×), and 0.2 ml of Ouabain (13.77 mM) to 7.7 ml of deionized water. Stimulus buffer was composed of 15 mM Tl2SO4, 0.75 mM K2SO4 in FluxOR chloride free buffer (diluted to 1× using deionized water). The final concentration of Tl2SO4 and K2SO4 in the assay plate was 3 mM and 0.15 mM, respectively.
Plating and induction of cells: The CHO T-Rex hROMK (human Kir1.1) stable cell line was maintained in Ham's F12 media supplemented with 10% FBS, 1% Penicillin-Streptomycin, 500 μg/ml Zeocin and 10 μg/ml Blasticidin at 37° C. in a 5% CO2 incubator. One day before the experiment, the cells were dissociated by incubation with Versene solution (15040-066, Life Technologies) for 10 minutes at 37° C. followed by addition of growth media. The cell suspension was centrifuged at 1200 rpm for 5 min. After discarding the supernatant, the cells were resuspended in fresh growth media and cell concentration was determined using a hemocytometer. Next, 0.5 μg/ml of Doxycycline was added to the cell suspension to induce hROMK channel expression and 50 μl (10,000 cells/well) of cell suspension was added to each well of a poly-D lysine coated 384 well black, optically clear bottom plate (6007718, Perkin Elmer). The assay plate was kept at 37° C. in a 5% CO2 incubator.
Assay protocol: On the day of experiment, media was removed and loading buffer was added (30 μl/well) to the assay plate. The cells were incubated in the loading buffer for 30 minutes at 37° C. The loading buffer was then replaced by assay buffer (30 μl/well) followed by addition of test compounds or controls. The cells were incubated with compounds for 30 minutes and the plate was then mounted on FlexStation (Molecular Devices) for fluorescence read out with excitation and emission wavelengths at 488 and 525 nm, respectively. Each well was read for 90 sec at 2 sec interval and the stimulus buffer was added after 20 seconds of baseline recording. The final DMSO concentration was either 0.5 or 1% in the assay plate. […] controls were defined by addition of DMSO or 3 μM of a standard ROMK inhibitor, respectively, to the wells instead of a test compound.
A 10-point concentration response curve was used to estimate the IC50 value of test compounds.
The data in Table 3 is reported with two significant figures.

Chain of hROMK (human Kir1.1) (P48048 whole entry): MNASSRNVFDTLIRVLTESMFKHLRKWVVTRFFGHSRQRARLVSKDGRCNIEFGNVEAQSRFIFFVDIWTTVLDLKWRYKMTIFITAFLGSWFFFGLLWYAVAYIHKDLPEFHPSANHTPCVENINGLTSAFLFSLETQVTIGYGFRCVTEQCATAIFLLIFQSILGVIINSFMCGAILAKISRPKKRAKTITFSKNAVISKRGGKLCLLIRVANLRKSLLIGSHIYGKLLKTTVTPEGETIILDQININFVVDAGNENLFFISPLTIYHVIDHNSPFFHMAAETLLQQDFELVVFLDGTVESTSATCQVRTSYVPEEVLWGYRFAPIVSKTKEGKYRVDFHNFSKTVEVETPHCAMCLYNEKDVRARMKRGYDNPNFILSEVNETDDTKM

| Compound | IC50 |
| --- | --- |
| Cn1c(=O)oc2ccc(C(O)CN3CCc4nc(-n5ncc6c(C#N)cccc65)ncc4C3)cc21 (single isomer, unassigned) [Example 3-II, 1-(6-(2-hydroxy-2-(3-methyl-2-oxo-2,3-dihydrobenzo[d]oxazol-5-yl)ethyl)-5,6,7,8-tetrahydropyrido[4,3-d]pyrimidin-2-yl)-1H-indazole-4-carbonitrile] | 1600 nM |
| Cc1c(CN2CCc3nc(-n4cnc5c(C#N)cccc54)ncc3C2)ccc2c1COC2=O [Example 40, 1-(6-((4-methyl-1-oxo-1,3-dihydro-isobenzofuran-5-yl)methyl)-5,6,7,8-tetrahydropyrido[4,3-d]pyrimidin-2-yl)-1H-benzo[d]imidazole-4-carbonitrile] | 3400 nM |
| Cc1c(C(O)CN2CCc3nc(Nc4cncc(C#N)c4)ncc3C2)ccc2c1COC2=O (single isomer, unassigned) [Example 61-I, 5-((6-(2-hydroxy-2-(4-methyl-1-oxo-1,3-dihydroisobenzofuran-5-yl)ethyl)-5,6,7,8-tetrahydropyrido[4,3-d]pyrimidin-2-yl)amino)nicotinonitrile] | 568 nM |
| Cc1c(CN2CCc3nc(Nc4ccc(C#N)c(F)c4)ncc3C2)ccc2c1COC2=O [Example 26, 2-fluoro-4-((6-((4-methyl-1-oxo-1,3-dihydroisobenzofuran-5-yl)methyl)-5,6,7,8-tetrahydropyrido[4,3-d]pyrimidin-2-yl)amino) benzonitrile] | 270 nM |
| Cc1c(C(O)CN2CCc3nc(-n4cnc5cccnc54)ncc3C2)ccc2c1COC2=O (single isomer, unassigned) [Example 55-I, 5-(2-(2-(3H-imidazo[4,5-b]pyridin-3-yl)-7,8-dihydropyrido[4,3-d]pyrimidin-6(5H)-yl)-1-hydroxyethyl)-4-methylisobenzofuran-1(3H)-one] | 1490 nM |
| Cc1c(CN2CCc3cc(Nc4ncc(C#N)cn4)ccc3C2)ccc2c1COC2=O [Example 37, 2-((2-((4-methyl-1-oxo-1,3-dihydro-isobenzofuran-5-yl)methyl)-1,2,3,4-tetrahydroisoquinolin-6-yl)amino) pyrimidine-5-carbonitrile] | 4900 nM |
| Cc1cc(Nc2ccc3c(c2)CCN(Cc2ccc4c(c2)COC4=O)C3)ncc1C#N [Example 34, 4-methyl-6-((2-((1-oxo-1,3-dihydro-isobenzofuran-5-yl)methyl)-1,2,3,4-tetrahydroisoquinolin-6-yl)amino) nicotinonitrile] | 300 nM |
| Cc1c(CN2CCc3cc(Nc4ccc5oc(=O)n(C)c5c4)ccc3C2)ccc2c1COC2=O [Example 14, 3-methyl-5-((2-((4-methyl-1-oxo-1,3-dihydroisobenzofuran-5-yl)methyl)-1,2,3,4-tetrahydroisoquinolin-6-yl)amino)benzo[d]oxazol-2(3H)-one] | 320 nM |
| Cc1c(CN2CCc3nc(-n4ncc5cc(C#N)ccc54)ncc3C2)ccc2c1COC2=O [Example 13, 1-(6-((4-methyl-1-oxo-1,3-dihydro-isobenzofuran-5-yl)methyl)-5,6,7,8-tetrahydropyrido[4,3-d]pyrimidin-2-yl)-1H-indazole-5-carbonitrile] | 750 nM |
| O=C1OCc2cc(CN3CCc4cc(Nc5ccc6c(c5)COC6=O)ccc4C3)ccc21 [Example 15, 5-((6-((1-oxo-1,3-dihydroisobenzofuran-5-yl)amino)-3,4-dihydroisoquinolin-2(1H)-yl)methyl)isobenzofuran-1(3H)-one] | 21 nM |
| Cc1c(C(O)CN2CCc3nc(-n4cnc5ccccc54)ncc3C2)ccc2c1COC2=O (single isomer, unassigned) [Example 67-I, 5-(2-(2-(1H-benzo[d]imidazol-1-yl)-7,8-dihydropyrido[4,3-d]pyrimidin-6(5H)-yl)-1-hydroxyethyl)-4-methyliso-benzofuran-1(3H)-one] | 157 nM |
| Cc1c(CN2CCc3cc(Nc4cccc(F)c4C#N)ccc3C2)ccc2c1COC2=O [Example 39, 2-fluoro-6-((2-((4-methyl-1-oxo-1,3-dihydroisobenzofuran-5-yl)methyl)-1,2,3,4-tetrahydroisoquinolin-6-yl)amino)benzonitrile] | 550 nM |
| Cc1c(CN2CCc3nc(N(C)c4ccc(C#N)c(F)c4)ncc3C2)ccc2c1COC2=O [Example 47, 2-fluoro-4-(methyl(6-((4-methyl-1-oxo-1,3-dihydroisobenzofuran-5-yl)methyl)-5,6,7,8-tetrahydropyrido[4,3-d]pyrimidin-2-yl)amino) benzonitrile] | 1900 nM |
| COC(=O)c1cnc2ccn(-c3ncc4c(n3)CCN(CC(O)c3ccc5c(c3C)COC5=O)C4)c2c1 (single isomer, unassigned) [Example 52-I, methyl 1-(6-(2-hydroxy-2-(4-methyl-1-oxo-1,3-dihydroisobenzofuran-5-yl)ethyl)-5,6,7,8-tetrahydropyrido[4,3-d]pyrimidin-2-yl)-1H-pyrrolo[3,2-b]pyridine-6-carboxylate] | 1240 nM |
| Cc1c(C(O)CN2CCc3nc(-n4ccc5c(C#N)ccnc54)ncc3C2)ccc2c1COC2=O (single isomer, unassigned) [Example 19-II, 1-(6-(2-hydroxy-2-(4-methyl-1-oxo-1,3-dihydroisobenzofuran-5-yl)ethyl)-5,6,7,8-tetrahydropyrido[4,3-d]pyrimidin-2-yl)-1H-pyrrolo[2,3-b]pyridine-4-carbonitrile] | 1900 nM |
| Cc1c(C(O)CN2CCc3nc(-n4ncc5c(C#N)cccc54)ncc3C2)ccc2c1COC2=O (single isomer, unassigned) [Example 12-II, 1-(6-(2-hydroxy-2-(4-methyl-1-oxo-1,3-dihydroisobenzofuran-5-yl)ethyl)-5,6,7,8-tetrahydropyrido[4,3-d]pyrimidin-2-yl)-1H-indazole-4-carbonitrile] | 410 nM |
| Cc1c(CN2CCc3nc(Nc4ccc5oc(=O)n(C)c5c4)ncc3C2)ccc2c1COC2=O [Example 49, 3-methyl-5-((6-((4-methyl-1-oxo-1,3-dihydroisobenzofuran-5-yl)methyl)-5,6,7,8-tetrahydropyrido[4,3-d]pyrimidin-2-yl)amino) benzo[d]oxazol-2(3H)-one] | 1800 nM |
| Cc1c(C(CO)N2CCc3cc(Nc4ccc(C#N)c(F)c4)ccc3C2)ccc2c1COC2=O (single isomer, unassigned) [Example 33-I, 2-fluoro-4-((2-(2-hydroxy-1-(4-methyl-1-oxo-1,3-dihydroisobenzofuran-5-yl)ethyl)-1,2,3,4-tetrahydroisoquinolin-6-yl)amino) benzonitrile] | 490 nM |
| Cc1c(C(CO)N2CCc3cc(Nc4ccc(C#N)c(F)c4)ccc3C2)ccc2c1COC2=O (single isomer, unassigned) [Example 33-II, 2-fluoro-4-((2-(2-hydroxy-1-(4-methyl-1-oxo-1,3-dihydroisobenzofuran-5-yl)ethyl)-1,2,3,4-tetrahydroisoquinolin-6-yl)amino) benzonitrile] | 1800 nM |
| Cc1c(C(O)CN2CCc3nc(-n4ccc5cc(C#N)cnc54)ncc3C2)ccc2c1COC2=O (single isomer, unassigned) [Example 44-I, 1-(6-(2-hydroxy-2-(4-methyl-1-oxo-1,3-dihydroisobenzofuran-5-yl)ethyl)-5,6,7,8-tetrahydropyrido[4,3-d]pyrimidin-2-yl)-1H-pyrrolo[2,3-b]pyridine-5-carbonitrile] | 2100 nM |
| N#Cc1cnc2c(ccn2-c2ncc3c(n2)CCN(Cc2ccc4c(c2)COC4=O)C3)c1 [Example 46, 1-(6-((1-oxo-1,3-dihydroisobenzofuran-5-yl)methyl)-5,6,7,8-tetrahydropyrido[4,3-d]pyrimidin-2-yl)-1H-pyrrolo[2,3-b] pyridine-5-carbonitrile] | 1500 nM |
| N#Cc1ccc2c(ccn2-c2ncc3c(n2)CCN(CC(O)c2ccc4c(c2)COC4=O)C3)c1 (single isomer, unassigned) [Example 17-II, 1-(6-(2-hydroxy-2-(1-oxo-1,3-dihydro-isobenzofuran-5-yl)ethyl)-5,6,7,8-tetrahydropyrido[4,3-d]pyrimidin-2-yl)-1H-indole-5-carbonitrile] | 850 nM |
